Results taken from ChEMBL document CHEMBL3232986, “Identification of a novel series of potent HCV NS5B Site I inhibitors” (Bioorg Med Chem Lett, 2014).

How the values were obtained:
[1] = Inhibition of HCV genotype 1b wild type NS5B polymerase using biotinylated oligo dT12 primer as substrate after 4 hrs in presence of [3H]UTP; design: species or system Hepatitis C virus subtype 1b
Hepatitis C virus = experiment: Antiviral activity against HCV genotype 1a H77c infected in human HuH7 cells after 3 days by luciferase reporter gene assay; type: functional, cell-based, Hepacivirus hominis; settings: Huh-7, 72 h
[2] = Cytotoxicity against human HuH7 cells after 4 hrs by CellTitre-Blue assay; type: cell-based, Huh-7
[3] = (§1) Plasma concentration in rat at 10 mg/kg, po after 6 hrs; type: ADME, organism-based; design: dose 10 mg/kg, route oral; settings: plasma
[4] = Clearance in rat after 6 hrs; type: ADME, organism-based; settings: in vivo
[5] = (§2) Plasma concentration in rat at 5 mg/kg, iv after 6 hrs; type: ADME, organism-based; design: dose 5 mg/kg, route intravenous; settings: plasma
[6] = (§3) Drug uptake in rat liver at 5 mg/kg, iv after 6 hrs; type: ADME, organism-based; design: dose 5 mg/kg, route intravenous; settings: liver, read-out: Drug uptake
[7] = (§4) Drug uptake in rat liver 10 mg/kg, po after 6 hrs; type: ADME, organism-based; design: dose 10 mg/kg, route oral; settings: liver, read-out: Drug uptake
[8] = Permeability of the compound at pH 5.5 by PAMPA; type: physicochemical; settings: read-out: permeability
[9] = Permeability of the compound at pH 7.4 by PAMPA; type: physicochemical; settings: read-out: permeability
[10] = Ratio of EC50 for HCV genotype 1a H77c replicon cells to IC50 for HCV genotype 1b wild type NS5B polymerase
Plasma [11] = experiment: as §1; type: ADME, organism-based; design: dose 10 mg/kg, route oral; settings: in vivo, 6 h, BLD = below limit of detection
Plasma [12] = experiment: as §2; type: ADME, organism-based; design: dose 5 mg/kg, route intravenous; settings: in vivo, 6 h, BLD = below limit of detection
Liver [13] = experiment: as §3; type: ADME, organism-based; design: dose 5 mg/kg, route intravenous; settings: in vivo, 6 h, BLD = below limit of detection
[14] = Cytotoxicity against human HuH7 cells after 3 days by Alamar blue assay; type: cell-based, Huh-7
Liver [15] = experiment: as §4; type: ADME, organism-based; design: dose 10 mg/kg, route oral; settings: in vivo, 6 h, BLD = below limit of detection

SMILES | IC50 [1] [nM] | EC50 (Hepatitis C virus) [nM] | CC50 at 4 h [2] [nM] | further results
COc1ccc2c(c1)[C@@H]1C[C@]1(C(=O)N1CC34CCC3(C1)CN(C1CC1)C4)Cn1c-2c(C2CCCCC2)c2ccc(C(=O)NS(=O)(=O)C(C)C)cc21 (stereo partly specified) | 5 | 12 | 18000 | –
COc1ccc2c(c1)[C@@H]1C[C@]1(C(=O)N1CC34CN(C)CC3(CN(C)C4)C1)Cn1c-2c(C2CCCCC2)c2ccc(C(=O)NS(=O)(=O)C(C)C)cc21 (stereo partly specified) | 5 | 1 | 43000 | concentration at 6 h [3]: 4 nM; clearance [4]: 25 mL/min/kg; concentration at 6 h [5]: 14 nM; concentration at 6 h [6]: 66 nM; concentration at 6 h [7]: 68 nM
COc1ccc2c(c1)[C@@H]1C[C@]1(C(=O)N1CC34CCC3(CN(C(=O)N3CCOCC3)C4)C1)Cn1c-2c(C2CCCCC2)c2ccc(C(=O)NS(=O)(=O)N(C)C)cc21 (stereo partly specified) | 2 | 15 | 21000 | Papp [8]: 11.3 ×10⁻⁶ cm/s; Papp [9]: 25.9 ×10⁻⁶ cm/s
COc1ccc2c(c1)[C@@H]1C[C@]1(C(=O)N1CC34COCC3(CN(CC(F)(F)F)C4)C1)Cn1c-2c(C2CCCCC2)c2ccc(C(=O)NS(=O)(=O)C(C)C)cc21 (stereo partly specified) | 4 | 16 | 8000 | –
COc1ccc2c(c1)[C@@H]1C[C@]1(C(=O)N1[C@@H]3CC[C@H]1CN(C)C3)Cn1c-2c(C2CCCCC2)c2ccc(C(=O)NS(=O)(=O)N(C)C)cc21 [BECLABUVIR] | 4 | 2 | 16000 | –
COc1ccc2c(c1)[C@@H]1C[C@]1(C(=O)N1CC34COCC3(CN(CC(F)(F)F)C4)C1)Cn1c-2c(C2CCCCC2)c2ccc(C(=O)NS(=O)(=O)N(C)C)cc21 (stereo partly specified) | 2 | 19 | 7000 | –
COC(=O)N1CC23COCC2(C1)CN(C(=O)[C@]12C[C@H]1c1cc(OC)ccc1-c1c(C4CCCCC4)c4ccc(C(=O)NS(=O)(=O)C(C)C)cc4n1C2)C3 (stereo partly specified) | 23 | 46 | 5000 | –
COc1ccc2c(c1)[C@@H]1C[C@]1(C(=O)N1CC34COCC3(CN(C(C)=O)C4)C1)Cn1c-2c(C2CCCCC2)c2ccc(C(=O)NS(=O)(=O)C(C)C)cc21 (stereo partly specified) | 3 | 42 | > 100000 | Ratio [10]: 14
COc1ccc2c(c1)[C@@H]1C[C@]1(C(=O)N1CC34CCC3(CN(CC(F)(F)F)C4)C1)Cn1c-2c(C2CCCCC2)c2ccc(C(=O)NS(=O)(=O)N(C)C)cc21 (stereo partly specified) | 4 | 55 | 26000 | –
CCN1CC23COCC2(C1)CN(C(=O)[C@]12C[C@H]1c1cc(OC)ccc1-c1c(C4CCCCC4)c4ccc(C(=O)NS(=O)(=O)C(C)C)cc4n1C2)C3 (stereo partly specified) | 4 | 4 | 11000 | concentration at 6 h [3]: 6 nM; clearance [4]: 49 mL/min/kg; concentration at 6 h [5]: 8 nM; concentration at 6 h [7]: 66 nM
COc1ccc2c(c1)[C@@H]1C[C@]1(C(=O)N1CC34CCC3(CN(C)C4)C1)Cn1c-2c(C2CCCCC2)c2ccc(C(=O)NS(=O)(=O)C(C)C)cc21 (stereo partly specified) | 4 | 4 | 21000 | concentration at 6 h [3]: 6 nM; clearance [4]: 24 mL/min/kg; concentration at 6 h [5]: 26 nM; concentration at 6 h [6]: 138 nM; concentration at 6 h [7]: 146 nM
COc1ccc2c(c1)[C@@H]1C[C@]1(C(=O)N1CC34CCC3(CN(C(=O)N(C(C)C)C(C)C)C4)C1)Cn1c-2c(C2CCCCC2)c2ccc(C(=O)NS(=O)(=O)N(C)C)cc21 (stereo partly specified) | 7 | 23 | 7000 | –
COc1ccc2c(c1)[C@@H]1C[C@]1(C(=O)N1CC34COCC3(CN(C(C)=O)C4)C1)Cn1c-2c(C2CCCCC2)c2ccc(C(=O)NS(=O)(=O)N(C)C)cc21 (stereo partly specified) | 2 | 8 | – | Cp (Plasma [11]): BLD; clearance [4]: 19 mL/min/kg; Cp (Plasma [12]): BLD; Drug uptake (Liver [13]): BLD; CC50 at 72 h [14]: 24000 nM; Ratio [10]: 4; Drug uptake (Liver [15]): BLD
COc1ccc2c(c1)[C@@H]1C[C@]1(C(=O)N1CC34CCC3(CN(C(=O)N(C(C)C)C(C)C)C4)C1)Cn1c-2c(C2CCCCC2)c2ccc(C(=O)NS(=O)(=O)C(C)C)cc21 (stereo partly specified) | 4 | 37 | 10000 | –
COc1ccc2c(c1)[C@@H]1C[C@]1(C(=O)N1CC34CCCC3(CN(C)C4)C1)Cn1c-2c(C2CCCCC2)c2ccc(C(=O)NS(=O)(=O)C(C)C)cc21 (stereo partly specified) | 3 | 2 | 11000 | concentration at 6 h [3]: 24 nM; clearance [4]: 31 mL/min/kg; concentration at 6 h [5]: 22 nM; concentration at 6 h [6]: 428 nM; concentration at 6 h [7]: 504 nM
COc1ccc2c(c1)[C@@H]1C[C@]1(C(=O)N1CC34CCC3(CN(CC(F)(F)F)C4)C1)Cn1c-2c(C2CCCCC2)c2ccc(C(=O)NS(=O)(=O)C(C)C)cc21 (stereo partly specified) | 7 | 77 | 35000 | –
CNC(=O)N1CC23COCC2(C1)CN(C(=O)[C@]12C[C@H]1c1cc(OC)ccc1-c1c(C4CCCCC4)c4ccc(C(=O)NS(=O)(=O)N(C)C)cc4n1C2)C3 (stereo partly specified) | 2 | 86 | 96000 | Papp [9]: 3.7 ×10⁻⁶ cm/s; Ratio [10]: 43
